Test system: asymmetric di-methyl PABP1 in RKO cells
Assay: RKO methylation assay, In Cell Western (ICW) for asymmetric di-methyl PABP1
Format: cell-based
Settings: Homo sapiens, RKO, Cellular potencies, ICW PABP1me2a
Summary of the method: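 In-cell Western on fixed RKO cells after 48 h compound exposure: anti-asymmetric di-methyl PABP1 signal at 800 nm over DRAQ5 DNA signal at 700 nm. Percent inhibition set between DMSO wells and wells with 20 μM reference compound; IC50 curves fitted in triplicate.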

IC50 [µM] | Compound
< 5 | CNC[C@H](O)COc1ccc(F)c(-c2nc(-c3c(C)noc3C)c(C)c(N3Cc4cccnc4C3)n2)c1 [Example 91-3]
< 5 | CNCC(O)COc1cccc(-c2nc(-c3c(C)noc3C)cc(N3CCN(S(C)(=O)=O)[C@@H](C)C3)n2)c1 (some centres unmarked) [Example 92-1a]
< 5 | CNC[C@H](O)COc1ccc(Cl)c(-c2nc(-c3c(C)noc3C)c(C)c(N3Cc4cccnc4C3)n2)c1 [Example 92-3]
< 5 | CNCC(O)COc1cccc(-c2nc(-c3c(C)noc3C)cc(N3CCN(C)[C@@H](C)C3)n2)c1 (some centres unmarked) [Example 93-1a]
< 5 | CCOC(=O)N1CCOC[C@@H]1CNc1nc(-c2cc(OCC(O)CNC)ccc2Cl)nc(-c2c(C)nsc2C)c1C (some centres unmarked) [Example 93-3]
< 5 | CNCC(O)COc1cccc(-c2nc(-c3c(C)noc3C)cc(N3C[C@@H]4C[C@H]3CN4C(=O)OC)n2)c1 (some centres unmarked) [Example 94-1a]
< 5 | CNC[C@H](O)COc1ccc(Cl)c(-c2nc(N[C@@H]3CCOC3)c(C)c(-c3c(C)noc3C)n2)c1 [Example 94-3]
10 to 20 | CNCC(O)COc1cccc(-c2nc(-c3c(C)noc3C)cc(N3C[C@@H]4C[C@H]3CN4C(C)=O)n2)c1 (some centres unmarked) [Example 95-1a]
< 5 | CNC[C@H](O)COc1ccc(Cl)c(-c2nc(-c3c(C)noc3C)c(C)c(N(C)[C@H]3C[C@@](C)(OC)C3)n2)c1 [Example 95-3]
< 5 | CNCC(O)COc1cccc(-c2nc(NC3CCOCC3)c(F)c(-c3c(C)noc3C)n2)c1 (centres unmarked) [Example 96-1a]
< 5 | CNC[C@H](O)COc1ccc(Cl)c(-c2nc(NCC3COCCO3)c(C)c(-c3c(C)noc3C)n2)c1 (some centres unmarked) [Example 96-3]
< 5 | CNCC(O)COc1cccc(-c2nc(-c3c(C)noc3C)c(F)c(N3CCN(C(=O)OC)CC3)n2)c1 (centres unmarked) [Example 97-1a]
< 5 | CNCC(O)COc1ccc(Cl)c(-c2nc(NC3CCOCC3)c(C)c(-c3c(C)nsc3C)n2)c1 (centres unmarked) [Example 97-3]
< 5 | CNCC(O)COc1cccc(-c2nc(-c3c(C)noc3C)cc(N(CCOC)C3CCOCC3)n2)c1 (centres unmarked) [Example 98-1a]
< 5 | CNC[C@@H](O)COc1ccc(F)c(-c2nc(N[C@H]3CCN(C4CC4)C[C@H]3F)c(C)c(-c3c(C)noc3C)n2)c1 [Example 98-3]
< 5 | CNCC(O)COc1cccc(-c2nc(NCCCN3CCCCCC3=O)cc(-c3c(C)noc3C)n2)c1 (centres unmarked) [Example 99-1a]
< 5 | CNC[C@H](O)COc1ccc(F)c(-c2nc(N[C@H]3CCN(C4CC4)C[C@H]3F)c(C)c(-c3c(C)noc3C)n2)c1 [Example 99-3]
5 to 10 | CNCC(O)COc1cccc(-c2nc(-c3c(C)noc3C)cc(N3C[C@H]4C[C@@H]3CN4S(C)(=O)=O)n2)c1 (some centres unmarked) [Example 100-1a]
< 5 | CNC[C@@H](O)COc1ccc(Cl)c(-c2nc(N[C@@H]3CCOC3)c(C)c(-c3c(C)noc3C)n2)c1 [Example 100-3]
< 5 | CNCC(O)COc1cccc(-c2nc(NC3(C)CCOCC3)c(C)c(-c3c(C)noc3C)n2)c1 (centres unmarked) [Example 101-1a]
< 5 | CNC[C@@H](O)COc1ccc(Cl)c(-c2nc(N[C@@H]3CCN(C(=O)OC)[C@@H](C)C3)c(C)c(-c3c(C)noc3C)n2)c1 [Example 101-3]

IC50 [µM] | Compound
< 5 | CNCC(O)COc1cccc(-c2nc(NC3CCN(C(=O)OC)CC3)cc(-c3c(C)noc3C)n2)c1 (centres unmarked) [Example 102-1a]
< 5 | CNC[C@@H](O)COc1ccc(Cl)c(-c2nc(N[C@H]3CCN(C(=O)OC)[C@H](C)C3)c(C)c(-c3c(C)noc3C)n2)c1 [Example 102-3]
< 5 | CNCC(O)COc1cccc(-c2nc(-c3c(C)noc3C)cc(N3CCN(CCF)[C@@H](C)C3)n2)c1 (some centres unmarked) [Example 103-1a]
< 5 | CNC[C@H](O)COc1ccc(Cl)c(-c2nc(N[C@H]3CCN(C(=O)OC)[C@H](C)C3)c(C)c(-c3c(C)noc3C)n2)c1 [Example 103-3]
< 5 | CNCC(O)COc1cccc(-c2nc(-c3c(C)noc3C)cc(N3CCN(CC(F)(F)F)[C@@H](C)C3)n2)c1 (some centres unmarked) [Example 104-1a]
< 5 | CNC[C@@H](O)COc1ccc(Cl)c(-c2nc(NC3CCN(C(=O)OC)CC3)c(C)c(-c3c(C)noc3C)n2)c1 [Example 104-3]
< 5 | CCOC(=O)N1CCC(Nc2nc(-c3cc(OC[C@@H](O)CNC)ccc3Cl)nc(-c3c(C)noc3C)c2C)CC1 [Example 105-3]
5 to 10 | CCNC(=O)N1CCN(c2nc(-c3cccc(OCC(O)CNC)c3)nc(-c3c(C)noc3C)c2C)CC1 (centres unmarked) [Example 106-1a]
< 5 | CNC[C@H](O)COc1ccc(F)c(-c2nc(-c3c(C)noc3C)c(C)c(N3CCC4(CCN(C(=O)OC)C4)C3)n2)c1 (some centres unmarked) [Example 106-3]
< 5 | CNCC(O)COc1cccc(-c2nc(-c3c(C)noc3C)c(C)c(N3CCN(C(=O)C(F)F)CC3)n2)c1 (centres unmarked) [Example 107-1a]
< 5 | CNCC(O)COc1cccc(-c2nc(-c3c(C)noc3C)c(C)c(N3CCN(C(=O)C4CCOCC4)CC3)n2)c1 (centres unmarked) [Example 108-1a]
< 5 | CNC[C@@H](O)COc1ccc(Cl)c(-c2nc(-c3c(C)noc3C)c(C)c(N3CC4(CCN(C5CC5)CC4)C3)n2)c1 [Example 108-3]
10 to 20 | CNCC(O)COc1cccc(-c2nc(-c3c(C)noc3C)cc(N3C[C@H]4C[C@@H]3CN4)n2)c1 (some centres unmarked) [Example 109-1a]
< 5 | CNC[C@@H](O)COc1ccc(Cl)c(-c2nc(-c3c(C)noc3C)c(C)c(N3CC4(CCN(C(=O)OC)CC4)C3)n2)c1 [Example 109-3]
5 to 10 | CNCC(O)COc1cccc(-c2nc(-c3c(C)noc3C)c(C)c(N3CCN4C(=O)OC[C@@H]4C3)n2)c1 (some centres unmarked) [Example 110-1a]
< 5 | CNC[C@@H](O)COc1ccc(Cl)c(-c2nc(N[C@H]3C[C@@](C)(OC)C3)c(C)c(-c3c(C)noc3C)n2)c1 [Example 110-3]
5 to 10 | CNCC(O)COc1cccc(-c2nc(-c3c(C)noc3C)c(C)c(N3CC[C@@H](S(C)(=O)=O)C3)n2)c1 (some centres unmarked) [Example 111-1a]
< 5 | CNC[C@@H](O)COc1ccc(Cl)c(-c2nc(N[C@H]3CCOC3)c(C)c(-c3c(C)noc3C)n2)c1 [Example 111-3]
10 to 20 | CNCC(O)COc1cccc(-c2nc(-c3c(C)noc3C)cc(-c3cnc4cnccn34)n2)c1 (centres unmarked) [Example 112-1a]
< 5 | CCOC(=O)N1CC[C@@H](Nc2nc(-c3cc(OC[C@H](O)CNC)ccc3Cl)nc(-c3c(C)noc3C)c2C)C1 [Example 112-3]
10 to 20 | CNCC(O)COc1cccc(-c2nc(NCC3(O)CCOCC3)c(C)c(-c3c(C)noc3C)n2)c1 (centres unmarked) [Example 114-1a]

IC50 [µM] | Compound
< 5 | CNC[C@@H](O)COc1ccc(F)c(-c2nc(-c3c(C)noc3C)c(C)c(N3Cc4cccnc4C3)n2)c1 [Example 114-3]
< 5 | CNCC(O)COc1cccc(-c2nc(NCC3(C)CCOCC3)c(C)c(-c3c(C)noc3C)n2)c1 (centres unmarked) [Example 115-1a]
< 5 | CNC[C@@H](O)COc1ccc(Cl)c(-c2nc(-c3c(C)noc3C)c(C)c(N3CCC4(CC3)CN(C(=O)OC)C4)n2)c1 [Example 115-3]
< 5 | CNC[C@@H](O)COc1ccc(Cl)c(-c2nc(OC[C@H]3CCCO3)c(C)c(-c3c(C)noc3C)n2)c1 [Example 116-3]
< 5 | CNC[C@@H](O)COc1ccc(Cl)c(-c2nc(OC[C@H]3CCOC3)c(C)c(-c3c(C)noc3C)n2)c1 [Example 117-3]
< 5 | CNCC(O)COc1cccc(-c2nc(NC3CCN(C(=O)OC)CC3)c(C)c(-c3c(C)noc3C)n2)c1 (centres unmarked) [Example 118-1a]
< 5 | CNC[C@@H](O)COc1ccc(Cl)c(-c2nc(-c3c(C)noc3C)c(C)c(N3CC4(CCOCC4)C3)n2)c1 [Example 118-3]
< 5 | CNC[C@@H](O)COc1ccc(Cl)c(-c2nc(-c3c(C)noc3C)c(C)c(N3CC4(CCCOC4)C3)n2)c1 [Example 119-3]
< 5 | CNCC(O)COc1cccc(-c2nc(-c3c(C)noc3C)cc(N3CCN(C(=O)N(C)C)CC3)n2)c1 (centres unmarked) [Example 120-1a]
< 5 | CNC[C@@H](O)COc1ccc(Cl)c(-c2nc(-c3c(C)noc3C)c(C)c(N3CC4(CCOC4)C3)n2)c1 [Example 120-3]
< 5 | CNCC(O)COc1cccc(-c2nc(-c3c(C)noc3C)c(C)c(N3CCN(C(=O)OCCF)CC3)n2)c1 (centres unmarked) [Example 121-1a]
< 5 | CNC[C@@H](O)COc1ccc(Cl)c(-c2nc(-c3c(C)noc3C)c(C)c(N3CC4(CCCO4)C3)n2)c1 [Example 121-3]
< 5 | CNC[C@@H](O)COc1ccc(Cl)c(-c2nc(-c3c(C)noc3C)c(C)c(N3CCc4nn(C)cc4C3)n2)c1 [Example 122-3]
5 to 10 | CNCC(O)COc1cccc(-c2nc(-c3c(C)noc3C)c(C)c(N3CCO[C@H](CNC)C3)n2)c1 (some centres unmarked) [Example 124-1a]
< 5 | CNCC(O)COc1ccc(C)c(-c2nc(NC3CCOC(C)C3)c(C)c(-c3c(C)noc3C)n2)c1 (centres unmarked) [Example 124-3]
< 5 | CNCC(O)COc1cccc(-c2nc(-c3c(C)noc3C)c(C)c(N3CCO[C@H](CO)C3)n2)c1 (some centres unmarked) [Example 125-1a]
< 5 | CNCC(O)COc1ccc(C)c(-c2nc(NC3CCN(C(=O)OC)CC3)c(C)c(-c3c(C)noc3C)n2)c1 (centres unmarked) [Example 125-3]
5 to 10 | CNCC(O)COc1cccc(-c2nc(-c3c(C)noc3C)c(C)c(N3CCO[C@H](CN(C)S(C)(=O)=O)C3)n2)c1 (some centres unmarked) [Example 126-1a]
< 5 | CNC[C@@H](O)COc1ccc(Cl)c(-c2nc(OC[C@@H]3CCOC3)c(C)c(-c3c(C)noc3C)n2)c1 [Example 126-3]
< 5 | CNCC(O)COc1cccc(-c2nc(-c3c(C)noc3C)c(C)c(N3CCO[C@H](CN(C)C(=O)OC)C3)n2)c1 (some centres unmarked) [Example 127-1a]
< 5 | CNC[C@@H](O)COc1ccc(Cl)c(-c2nc(NC3CCOCC3)c(C)c(-c3c(C)noc3C)n2)c1 [Example 127-3]

Compound | IC50 [µM]
CNCC(O)COc1cccc(-c2nc(-c3c(C)noc3C)c(C)c(N3C[C@H]4CC[C@@H](C3)N4C)n2)c1 (some centres unmarked) [Example 116-1a] | 5 to 10
CNCC(O)COc1cccc(-c2nc(-c3c(C)noc3C)c(C)c(N3[C@@H]4CC[C@H]3CN(C)C4)n2)c1 (some centres unmarked) [Example 117-1a] | 10 to 20
